We go through 31 compounds from US20240279215A1 (Cytokinetics, Incorporated, priority 2022, published 2024).

The structures appear in SMILES notation.

This experiment has as its target human NAMPT (Homo sapiens (Human), UniProt P43490). Put plainly: NMN fluorescence biochemical assay (human recombinant NAMPT enzyme assay). As for the experimental part:
Compounds described herein were assayed for their ability to stimulate the synthesis of nicotinamide mononucleotide (NMN) by the enzyme NAMPT. The human recombinant enzyme assay measures the activation of the enzyme activity by compounds using recombinant enzyme and substrates in a buffered cell-free system. The assay conditions closely mimic cellular environments. Dose responses were measured using an assay to detect the formation of nicotinamide mono-nucleotide. All experiments were performed in the 384-well format. Generally, 0.5 μL of DMSO containing varying concentrations of the test compound was mixed with 10 μL of the enzyme reagent solution. Enzyme reactions were initiated with the addition of […] containing the substrates. The final assay conditions were as follows: 6 nM human NAMPT, 2.5 mM ATP, 20 μM PRPP and 150 μM nicotinamide in 50 mM HEPES, pH 7.2, 1 mM DTT, 1 mM CHAPS 50 mM NaCl, 100 mM MgCl2. Following an incubation of 60 min at ambient temperature, 10 μL of 20% acetophenone in DMSO was added, followed by 10 μL of 2 M KOH and 40 μL of formic acid. The plates were read for fluorescence (Excitation/Emission=355 nm/460 nm) using an EnVision plate reader after 40 mins of incubation at ambient temperature.

Chain of human NAMPT (P43490 whole entry): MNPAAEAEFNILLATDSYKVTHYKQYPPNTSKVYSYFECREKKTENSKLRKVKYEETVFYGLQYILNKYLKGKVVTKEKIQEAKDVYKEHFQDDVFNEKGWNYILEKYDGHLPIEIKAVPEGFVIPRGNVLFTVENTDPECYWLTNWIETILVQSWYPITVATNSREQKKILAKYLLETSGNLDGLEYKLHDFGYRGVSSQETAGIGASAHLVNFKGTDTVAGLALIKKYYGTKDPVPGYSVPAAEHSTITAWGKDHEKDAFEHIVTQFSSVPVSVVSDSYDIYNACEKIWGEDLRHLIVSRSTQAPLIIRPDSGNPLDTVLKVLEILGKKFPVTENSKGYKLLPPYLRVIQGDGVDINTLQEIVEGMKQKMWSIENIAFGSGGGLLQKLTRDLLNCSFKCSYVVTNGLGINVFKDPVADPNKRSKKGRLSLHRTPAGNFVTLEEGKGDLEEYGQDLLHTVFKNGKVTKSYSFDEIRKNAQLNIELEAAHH

`CC(=O)N1CCC(Cc2ccc(NC(=O)OCc3cnco3)cc2)CC1` [Compound 31, oxazol-5-ylmethyl (4-((1-acetylpiperidin-4-yl)methyl)phenyl)carbamate]: the “AC1.4 Human” value was found to be 0.37 µM and the concentration giving a half-maximal response (EC50) (as a rule, the concentration that produces a half-maximal response) amounted to 21.7 µM.
Turning to `O=C(Nc1ccc(NS(=O)(=O)Cc2ccccc2)cc1)OCc1ccc(Cl)cc1` [Compound 33, 4-chlorobenzyl (4-((phenylmethyl)sulfonamido)phenyl)carbamate], the “AC1.4 Human” value turned out to be 0.38 µM and the EC50 is 1.01 µM.
As to `CN(C)S(=O)(=O)N1CCC(Cc2ccc(NC(=O)OCc3ccc(Cl)cc3)cc2)CC1` [Compound 34, 4-chlorobenzyl (4-((1-(N,N-dimethylsulfamoyl)piperidin-4-yl)methyl)phenyl)carbamate], the “AC1.4 Human” value turned out to be 0.38 µM and the EC50 worked out at 0.82 µM.
The matching figures for `CC(C)C(=O)N1CCC(Cc2ccc(NC(=O)OCc3cnco3)cc2)CC1` [Compound 35, oxazol-5-ylmethyl (4-((1-isobutyrylpiperidin-4-yl)methyl)phenyl)carbamate]: 0.39 µM and 37.9 µM.
The matching figures for `CN(Cc1ccc(NC(=O)OCc2ccc(Cl)cc2)cc1)C(=O)c1ccncc1F` [Compound 36, (4-chlorophenyl)methyl N-(4-{[1-(3-fluoropyridin-4-yl)-N-methylformamido]methyl}phenyl)carbamate]: 0.40 µM and 1 µM.
The like results for `Cc1ccc(C(=O)NCc2ccc(NC(=O)OCc3ccncc3)cc2)cn1` [Compound 37, pyridin-4-ylmethyl (4-((6-methylnicotinamido)methyl)phenyl)carbamate] were, in that order, 0.41 µM and 3.67 µM.
As to `CS(=O)(=O)N1CCC(Cc2ccc(NC(=O)OCc3ccc(Cl)cc3)cc2)CC1` [Compound 38, 4-chlorobenzyl (4-((1-(methylsulfonyl)piperidin-4-yl)methyl)phenyl)carbamate], the “AC1.4 Human” value came out at 0.42 µM and the EC50 turned out to be 1.22 µM.
The like results for `C[C@H](NC(=O)c1ccc(F)cc1)c1ccc(NC(=O)OCc2cnco2)cc1` [Compound 39, 1,3-oxazol-5-ylmethyl N-{4-[(1S)-1-[(4-fluorophenyl)formamido]ethyl]phenyl}carbamate] were, in that order, 0.43 µM and 19.2 µM.
The matching figures for `CN(Cc1ccc(NC(=O)OCc2ccc(Cl)cc2)cc1)C(=O)c1cn[nH]c1` [Compound 41, (4-chlorophenyl)methyl N-{4-[(N-methyl-1-1H-pyrazol-4-ylformamido)methyl]phenyl}carbamate]: 0.44 µM and 3.48 µM.
The like results for `COC1CCN(C(=O)N(C)Cc2ccc(NC(=O)OCc3ccc(Cl)cc3)cc2)CC1` [Compound 42, 4-chlorobenzyl (4-((4-methoxy-N-methylpiperidine-1-carboxamido)methyl)phenyl)carbamate] were, in that order, 0.44 µM and 5.66 µM.
`C[C@H](NC(=O)c1ccncc1F)c1ccc(NC(=O)OCc2ccc(Cl)cc2)cc1` [Compound 44, (4-chlorophenyl)methyl N-{4-[(1S)-1-[(3-fluoropyridin-4-yl)formamido]ethyl]phenyl}carbamate]: the “AC1.4 Human” value worked out at 0.45 µM and the EC50 was found to be 4.19 µM.
`Cc1cnn(C)c1C(=O)NCc1ccc(NC(=O)OCc2ccc(Cl)cc2)cc1` [Compound 45, (4-chlorophenyl)methyl N-(4-{[(2,4-dimethylpyrazol-3-yl)formamido]methyl}phenyl)carbamate]: the “AC1.4 Human” value was found to be 0.46 µM and the EC50 stood at 1.88 µM.
The like results for `Cc1noc(C(=O)N[C@@H](C)c2ccc(NC(=O)OCc3ccc(Cl)cc3)cc2)c1C` [Compound 46, 4-chlorobenzyl (S)-(4-(1-(3,4-dimethylisoxazole-5-carboxamido)ethyl)phenyl)carbamate] were, in that order, 0.48 µM and 2.58 µM.
The matching figures for `COc1ccc(COC(=O)Nc2ccc([C@@H](C)C(=O)N3CCC[C@H]3CO)cc2)cc1` [Compound 47]: 0.49 µM and 9.61 µM.
The matching figures for `O=C(Nc1ccc(CC2CCN(C(=O)C3COC3)CC2)cc1)OCc1cnco1` [Compound 48, oxazol-5-ylmethyl (4-((1-(oxetane-3-carbonyl)piperidin-4-yl)methyl)phenyl)carbamate]: 0.49 µM and 31 µM.
As to `CN(Cc1ccc(NC(=O)OCc2ccc(Cl)cc2)cc1)C(=O)c1cc[nH]n1` [Compound 49, (4-chlorophenyl)methyl N-{4-[(N-methyl-1-1H-pyrazol-3-ylformamido)methyl]phenyl}carbamate], the “AC1.4 Human” value came to 0.50 µM and the EC50 was 2.02 µM.
The like results for `CN(Cc1ccc(NC(=O)OCc2ccc(Cl)cc2)cc1)C(=O)c1ccnn1C` [Compound 50, (4-chlorophenyl)methyl N-(4-{[N-methyl-1-(2-methylpyrazol-3-yl)formamido]methyl}phenyl)carbamate] were, in that order, 0.50 µM and 0.89 µM.
The matching figures for `Cc1ccc(Cc2ccc(NC(=O)OCc3cnco3)cc2)cn1` [Compound 51, oxazol-5-ylmethyl (4-((6-methylpyridin-3-yl)methyl)phenyl)carbamate]: 0.50 µM and 40.3 µM.
Take `COc1ccc(COC(=O)Nc2ccc(CNC(=O)c3ccc(C)nc3)cc2)cc1` [Compound 53, (4-methoxyphenyl)methyl N-(4-{[(6-methylpyridin-3-yl)formamido]methyl}phenyl)carbamate]: the “AC1.4 Human” value is 0.51 µM and the EC50 stood at 5.89 µM.
The like results for `CN1CC(=O)NC[C@@H]1c1ccc(NC(=O)OCc2ccc(Cl)cc2)cc1` [Compound 54, 4-chlorobenzyl (S)-(4-(1-methyl-5-oxopiperazin-2-yl)phenyl)carbamate] were, in that order, 0.51 µM and 8.45 µM.
The like results for `CN(Cc1ccc(NC(=O)OCc2ccc(Cl)cc2)cc1)C(=O)c1c(F)cncc1F` [Compound 55, (4-chlorophenyl)methyl N-(4-{[1-(3,5-difluoropyridin-4-yl)-N-methylformamido]methyl}phenyl)carbamate] were, in that order, 0.51 µM and 1.82 µM.
The like results for `COCCn1nccc1C(=O)N[C@@H](C)c1ccc(NC(=O)OCc2ccc(Cl)cc2)cc1` [Compound 56, (4-chlorophenyl)methyl N-{4-[(1S)-1-{[2-(2-methoxyethyl)pyrazol-3-yl]formamido}ethyl]phenyl}carbamate] were, in that order, 0.53 µM and 2.8 µM.
On to `C[C@H](NC(=O)c1c(F)cncc1F)c1ccc(NC(=O)OCc2ccc(Cl)cc2)cc1` [Compound 57, (4-chlorophenyl)methyl N-{4-[(1S)-1-[(3,5-difluoropyridin-4-yl)formamido]ethyl]phenyl}carbamate], for which the “AC1.4 Human” value was found to be 0.54 µM and the EC50 came out at 1.29 µM.
The like results for `CN(C)C(=O)N1CCC(Cc2ccc(NC(=O)OCc3ccc(Cl)cc3)cc2)CC1` [Compound 58, 4-chlorobenzyl (4-((1-(dimethylcarbamoyl)piperidin-4-yl)methyl)phenyl)carbamate] were, in that order, 0.55 µM and 1.73 µM.
The like results for `Cc1ccc(C(=O)N[C@@H](C)c2ccc(NC(=O)OCc3ccc(Cl)cc3)cc2)cn1` [Compound 60, 4-chlorobenzyl (S)-(4-(1-(6-methylnicotinamido)ethyl)phenyl)carbamate] were, in that order, 0.57 µM and 1.91 µM.
The like results for `COc1ccc(COC(=O)Nc2ccc(NS(=O)(=O)Cc3ccccc3)cc2)cc1` [Compound 61, 4-methoxybenzyl (4-((phenylmethyl)sulfonamido)phenyl)carbamate] were, in that order, 0.57 µM and 2.62 µM.
`NC(=O)N1CCC(Cc2ccc(NC(=O)OCc3ccc(Cl)cc3)cc2)CC1` [Compound 62, 4-chlorobenzyl (4-((1-carbamoylpiperidin-4-yl)methyl)phenyl)carbamate]: the “AC1.4 Human” value was 0.57 µM and the half-maximal effective concentration (EC50) worked out at 2.64 µM.
The matching figures for `O=C(Nc1ccc(CN2C(=O)CC3CC32)cc1)OCc1ccc(Cl)cc1` (centres unmarked) [Compound 63, (4-chlorophenyl)methyl N-[4-({3-oxo-2-azabicyclo[3.1.0]hexan-2-yl}methyl)phenyl]carbamate]: 0.57 µM and 4.93 µM.
The matching figures for `CO[C@H]1CC[C@H](NC(=O)Cc2ccc(NC(=O)OCc3ccc(Cl)cc3)cc2)CC1` [Compound 64, (4-chlorophenyl)methyl N-[4-({[(1R,4R)-4-methoxycyclohexyl]carbamoyl}methyl)phenyl]carbamate]: 0.58 µM and 4.22 µM.
The matching figures for `Cc1ccc(Cc2ccc(NC(=O)OCc3cn[nH]c3)cc2)cn1` [Compound 65, (1H-pyrazol-4-yl)methyl (4-((6-methylpyridin-3-yl)methyl)phenyl)carbamate]: 0.58 µM and 37.1 µM.
Consider `Cc1ccc(C(=O)NCc2ccc(NC(=O)OCc3cncs3)cc2)cn1` [Compound 66, thiazol-5-ylmethyl (4-((6-methylnicotinamido)methyl)phenyl)carbamate], for which the “AC1.4 Human” value came to 0.59 µM and the EC50 came to 5.12 µM.
